According to patent US7317014B2, “Bio-active pyrimidine molecules” (Orchid Research Laboratories, Ltd., priority 2002, dated 2008):

Tests used:
Male Wistar rats = assay: Rat carrageenan paw edema test; type: in vivo; details: oral
COX-2 = target: T1, COX-2 (Homo sapiens, UniProt P35354); assay: Human whole blood assay, COX-2 inhibition (PGE2 after LPS); type: cell-based; details: Conc. 0.1 μM, 24 h
T1 construct: incubation of human blood with lipopolysaccharide (LPS), which induces COX-2 production in the blood; endogenous in cells; host or cells: fresh human whole blood from male volunteers, LPS-stimulated, aspirin-pretreated
T1 sequence (P35354 18-604): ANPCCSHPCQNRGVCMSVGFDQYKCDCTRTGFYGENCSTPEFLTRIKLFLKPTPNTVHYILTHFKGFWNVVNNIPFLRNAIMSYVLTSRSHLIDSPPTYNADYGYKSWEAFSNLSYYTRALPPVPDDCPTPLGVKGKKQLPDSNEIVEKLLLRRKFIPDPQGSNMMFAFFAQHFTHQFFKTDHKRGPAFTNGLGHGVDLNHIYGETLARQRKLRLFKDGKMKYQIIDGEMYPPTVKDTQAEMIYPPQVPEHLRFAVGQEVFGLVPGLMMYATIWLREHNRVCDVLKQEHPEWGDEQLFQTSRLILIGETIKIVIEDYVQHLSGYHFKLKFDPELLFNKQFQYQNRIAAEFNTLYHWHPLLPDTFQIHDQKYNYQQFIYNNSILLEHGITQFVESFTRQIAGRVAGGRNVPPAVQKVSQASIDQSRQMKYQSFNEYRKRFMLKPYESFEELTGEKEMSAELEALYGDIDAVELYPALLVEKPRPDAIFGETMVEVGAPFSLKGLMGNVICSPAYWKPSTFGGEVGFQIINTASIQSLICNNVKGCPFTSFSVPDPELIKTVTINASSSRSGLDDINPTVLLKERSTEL
Description: The COX-2 inhibition activity of the compounds illustrated in the examples was determined by the following method. Human Whole Blood Assay Human whole blood provides a protein and cell rich milieu appropriate for the study of biochemical efficacy of anti-inflammatory compounds such as selective COX-2 inhibitors. […] This is correlating with the observation that COX-2 inhibitors have no effect on prostaglandin E2 (PGE2) production in normal blood. These inhibitors are active only after incubation of human blood with lipopolysaccharide (LPS), which induces COX-2 production in the blood. Method Fresh blood was collected in tubes containing potassium EDTA by vein puncture from male volunteers. The subjects should have no apparent inflammatory conditions and not taken NSAIDs for atleast 7 days prior to blood collection. Blood was treated with aspirin in vitro (10 μg/ml, at time zero) to inactivate COX-1, and then with LPS (10 μg/ml) along with test agents or vehicle. The blood was incubated for 24 h at 37° C., after which the tubes were centrifuged, the plasma was separated and stored at −80° C. (J. Pharmacol. Exp. Ther., 271, 1705, 1994; Proc. Natl. Acad. Sci. USA., 96, 7563, 1999). The plasma was assayed for PGE2 using Cayman ELISA kit as per the procedure outlined by the manufacturer (Cayman Chemicals, Ann Arbor, USA). The plasma was also tested for TNF-α, IL-1β, and IL-6 using appropriate human ELISA kit as per the procedure of manufacturer (Cayman Chemicals, Ann Arbor, USA).

TNF-α = TNF-α production from LPS-stimulated human monocytes (ELISA); type: cell-based; details: Monocyte, Conc. 1 μM
NCI-H460 = assay: DTP human tumor cell line one-dose prescreen, NCI-H460; type: cell-based; details: Concentration (100 μm), Lung NCI-H460, test/control (T/C)
Description: (§1) The current assay utilizes a 384 well plate format and fluorescent staining technologies resulting in greater screening capacity for testing of synthetic samples. Cell Lines The cell lines of the cancer screening panel are grown in RPMI 1640 medium containing 5% fetal bovine serum and 2 mM L-glutamine. For a typical screening experiment, cells are inoculated into 96 well microtiter plates in 100 μL. After cell inoculation, the microtiter plates are incubated at 37° C., 5% CO2, 95% air and 100% relative humidity for 24 h prior to addition of experimental drugs. The cells are plated a densities of 5000 cells/well (MCF7), 1000 cells/well (NCI-H460), and 7500 cells/well (SF-268) to allow for varying doubling time of the cell lines. Each plate contains all three cell lines, a series of dilutions of standard agents, total kill wells and appropriate controls. Plates are incubated under standard conditions for 24 hours prior to addition of experimental compounds or extracts. Addition of Experimental Agents (Pure Compounds) […] Two standard drugs, meaning that their activities against the cell lines are well documented, are tested against each cell line: NSC 19893 (5-FU) and NSC 123127 (Adriamycin). Endpoint Measurement After compound addition, plates are incubated at standard conditions for ?hours, 10 μl/well Alamar Blue is added and the plates are incubated for an additional 4 hours. Fluorescence is measured using an excitation wavelength of 530 nm and an emission wavelength of 590 nm. Calculation of Percent Test Cell Growth/Control (Untreated) Cell Growth (T/C) Calculation of Percent Test Cell Growth/Control (Untreated) Cell Growth (T/C) Percent growth is calculated on a plate-by-plate basis for test wells relative to control wells. Percent Growth is expressed as the ratio of fluorescence of the test well to the average fluorescence of the control wells ×100.

MCF7 = assay: DTP human tumor cell line one-dose prescreen, MCF7; type: cell-based; details: Concentration (100 μm), Breast MCF7, test/control (T/C)
Description: as §1

SF-268 = assay: DTP human tumor cell line one-dose prescreen, SF-268; type: cell-based; details: Concentration (100 μm), CNS SF-268, test/control (T/C)
Description: as §1

## CS(=O)(=O)c1ccc(-c2nc(C(F)(F)F)nc(Cl)c2-c2ccc(F)cc2)cc1 [Example 6, 4-chloro-5-(4-fluorophenyl)-6-[4-(methylsulfonyl)phenyl]-2-(trifluoromethyl)pyrimidine]
Male Wistar rats
  Rat Paw Edema model % Inhibition (10 mg/kg body weight): 64%
COX-2
  inhibition at 0.1 µM: 51.9%
TNF-α
  inhibition at 1 µM: 51.5%
NCI-H460
  Percentage Growth Lung NCI-H460: 0
MCF7
  Percentage Growth Breast MCF7: 0
SF-268
  Percentage Growth CNS SF-268: 12
other
  melting point: 195 to 197 °C
